Series [1] is described as follows: Test 4: Oral Absorption Ability Test (2). It is filed as in vivo, mice (ICR, male). On the procedure: The compounds of Examples 62, 63 and 69 were orally administered to mice (ICR, male, n=3) in an amount of 0.5 mg (based on the weight of the compound of Example 62 from which the compounds of Examples 63 and 69 were derived)/0.2 ml/mouse as a 0.5% methylcellulose suspension, and then cilastatin was immediately administered subcutaneously in the same amount (because of the instability of the compound of Example 62 to mouse DHP-I, cilastatin as an inhibitor of DHP-I was used in combination). As a result, the compound of Example 62 was excreted in urine in 6%, 18% and 35% of bio-availability (BA) by 24 hours after the compounds of Examples 62, 63 and 69 were administered. The “BA” is a ratio of the recovery of a mother compound in urine when a test compound, i.e., a pro-drug of the mother compound , is orally administered to the recovery of the mother compound when the mother compound is administered intravenously. Some compounds were tested in the same manner as in Test 3 provided that 5%HCO60 was used instead of 0.5% methylcellulose suspension.

The test system of series [2] is S. aureus M126. The series can be described thus: Test 1: Anti-Microbial Activities (MIC). The following applies: Staphylococcus aureus; S. aureus M126, methicillin-hyperresistant strain (MRSA); Sensitivity Disk agar-N+5% Horse blood; inoculants 10^6 CFU/ml; read-out: minimum inhibiting concentrations (MIC). Format: cell-based. On the procedure:
(§1) The minimum inhibiting concentrations (MIC, μg/ml) of the compounds according to the present invention to various pathogenic bacteria was measured in accordance with the method described in CHEMOTHERAPY, vol. 16, No. 1,99, 1968. The culture medium for measurement was Sensitivity Disk agar-N+5% Horse blood, and the amount of inoculants was 10^6 CFU/ml.

Series [3] has as its system M. catarrhalis W-0500. Briefly: Test 1: Anti-Microbial Activities (MIC). Format: cell-based. The following applies: Moraxella catarrhalis, W0500, Sensitivity Disk agar-N+5% Horse blood, inoculants 10^6 CFU/ml, read-out: minimum inhibiting concentrations (MIC). On the procedure: as §1
In series [4] the test system is K. pneumoniae PCI602. Briefly: Test 1: Anti-Microbial Activities (MIC). It is filed as cell-based. The conditions noted are these: Klebsiella pneumoniae, Sensitivity Disk agar-N+5% Horse blood, inoculants 10^6 CFU/ml, read-out: minimum inhibiting concentrations (MIC). On the procedure:
as §1

Series [5] deals with E. coli NIHJ JC-2. Briefly: Test 1: Anti-Microbial Activities (MIC). It is filed as cell-based. The following applies: Escherichia coli, NIHJJC2, Sensitivity Disk agar-N+5% Horse blood, inoculants 10^6 CFU/ml, read-out: minimum inhibiting concentrations (MIC). The method, then:
as §1

For series [6], the system named is S. pneumoniae PRC9. The series can be described thus: Test 1: Anti-Microbial Activities (MIC). It is filed as cell-based. The conditions noted are these: Streptococcus pneumoniae; S. pneumoniae PRC9, penicillin-hyperresistant strain (PRSP); Sensitivity Disk agar-N+5% Horse blood; inoculants 10^6 CFU/ml; read-out: minimum inhibiting concentrations (MIC). On the procedure:
as §1

For series [7], the system named is E. faecalis W-73. Briefly: Test 1: Anti-Microbial Activities (MIC). It is filed as cell-based. The conditions noted are these: Enterococcus faecalis, W73, Sensitivity Disk agar-N+5% Horse blood, inoculants 10^6 CFU/ml, read-out: minimum inhibiting concentrations (MIC). The method, then:
as §1

The subject of series [8] is H. influenzae PRC44. The series can be described thus: Test 1: Anti-Microbial Activities (MIC). Format: cell-based. The following applies: Haemophilus influenzae, Sensitivity Disk agar-N+5% Horse blood, inoculants 10^6 CFU/ml, read-out: minimum inhibiting concentrations (MIC). The method, then: as §1
For series [9], the system named is S. epidermidis ATCC14990. Briefly: Test 1: Anti-Microbial Activities (MIC). It is filed as cell-based. The conditions noted are these: Staphylococcus epidermidis, Sensitivity Disk agar-N+5% Horse blood, inoculants 10^6 CFU/ml, read-out: minimum inhibiting concentrations (MIC). The method, then:
as §1

Series [10] relates to H. influenzae PRC2. The series can be described thus: Test 1: Anti-Microbial Activities (MIC). Format: cell-based. The conditions noted are these: Haemophilus influenzae, Sensitivity Disk agar-N+5% Horse blood, inoculants 10^6 CFU/ml, read-out: minimum inhibiting concentrations (MIC). On the procedure: as §1
The test system of series [11] is E. hirae ATCC8043. The series can be described thus: Test 1: Anti-Microbial Activities (MIC). The following applies: Enterococcus hirae, Sensitivity Disk agar-N+5% Horse blood, inoculants 10^6 CFU/ml, read-out: minimum inhibiting concentrations (MIC). It is filed as cell-based. On the procedure: as §1
Series [12] relates to C. freundii GN346. The series can be described thus: Test 1: Anti-Microbial Activities (MIC). Format: cell-based. The conditions noted are these: Citrobacter freundii, Sensitivity Disk agar-N+5% Horse blood, inoculants 10^6 CFU/ml, read-out: minimum inhibiting concentrations (MIC). The method, then:
as §1

Series [13] relates to P. vulgaris GN7919. The series can be described thus: Test 1: Anti-Microbial Activities (MIC). Format: cell-based. The following applies: Proteus vulgaris, Sensitivity Disk agar-N+5% Horse blood, inoculants 10^6 CFU/ml, read-out: minimum inhibiting concentrations (MIC). The method, then: as §1
Series [14] concerns S. aureus 209P JC-1. Briefly: Test 1: Anti-Microbial Activities (MIC). The conditions noted are these: Staphylococcus aureus, Sensitivity Disk agar-N+5% Horse blood, inoculants 10^6 CFU/ml, read-out: minimum inhibiting concentrations (MIC). Format: cell-based. The method, then: as §1
Series [15] can be described thus: Test 5: Acute Toxicity (i.v.). The conditions noted are these: mice, 2,000 mg/kg i.v. It is filed as in vivo, mice (ICR, male). The method, then: The compounds of Examples 44, 62, 88, and 111 were tested again in the same manner as the above provided that cilastatin sodium was co-administered.
Series [16] addresses T1, porcine renal DHP-I (Sus scrofa, UniProt P22412).
T1 sequence (P22412 17-384): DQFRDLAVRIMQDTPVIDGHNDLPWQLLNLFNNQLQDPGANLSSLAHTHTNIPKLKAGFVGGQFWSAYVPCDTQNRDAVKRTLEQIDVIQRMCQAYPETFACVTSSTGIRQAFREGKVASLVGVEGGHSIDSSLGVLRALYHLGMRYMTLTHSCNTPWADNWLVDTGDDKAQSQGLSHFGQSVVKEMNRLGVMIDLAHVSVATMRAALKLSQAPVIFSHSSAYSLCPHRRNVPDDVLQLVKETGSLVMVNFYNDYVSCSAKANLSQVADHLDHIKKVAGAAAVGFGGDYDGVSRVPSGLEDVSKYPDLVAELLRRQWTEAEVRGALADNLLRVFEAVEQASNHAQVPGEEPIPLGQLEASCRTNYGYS
Briefly: Test 2: stability against DHP-I (porcine). The following applies: partly purified Porcine DHP-I, 100 μg (titer)/ml, 37° C., HPLC.

Series [17] addresses T2, mouse DHP-I (Mus musculus, UniProt P31428).
T2 sequence (P31428 17-384): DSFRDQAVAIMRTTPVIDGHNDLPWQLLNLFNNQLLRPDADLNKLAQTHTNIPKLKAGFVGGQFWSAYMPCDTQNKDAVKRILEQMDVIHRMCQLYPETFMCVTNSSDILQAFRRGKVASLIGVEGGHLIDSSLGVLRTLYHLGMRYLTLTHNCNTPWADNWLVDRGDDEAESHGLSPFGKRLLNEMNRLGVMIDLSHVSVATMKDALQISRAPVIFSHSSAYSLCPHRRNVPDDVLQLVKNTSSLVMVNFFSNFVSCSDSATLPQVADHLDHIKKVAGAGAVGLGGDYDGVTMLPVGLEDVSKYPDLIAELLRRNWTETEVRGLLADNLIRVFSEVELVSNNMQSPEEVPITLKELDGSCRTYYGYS
The series can be described thus: Test 2: stability against DHP-I (mouse). The following applies: for residual amounts (%) after 3 hours: partly purified Mouse DHP-I, 100 μg (titer)/ml, 37° C., HPLC.

The mark [18] stands for this setting: cilastatin sodium co-administered.

In the case of “1-Adamantylcarbonyloxymethyl (1S,5R,6S)-6-((1R)-1-hydroxyethyl)-methyl-2-(7-methylthio-imidazo[5,1-b]thiazol-2-yl)-1-carbapen-2-em-3-carboxylate [Example 250]”, in series [1] (mouse, in vivo, po), the “bio-availability (BA): mother compound excreted in urine by 24 hours” value (“bio-availability (BA)” for short) worked out at 39%.

As to `Cc1nc(S(C)(=O)=O)c2sc(C3=C(C(=O)[O-])N4C(=O)[C@H]([C@@H](C)O)[C@H]4[C@H]3C)cn12.[Na+]` [Example 44, Sodium (1S,5R,6S)-6-((1R)-1-Hydroxyethyl)-2-(7-methanesulfonyl-5-methylimidazo[5,1-b]thiazol-2-yl)-1-methyl-1-carbapen-2-em-3-carboxylate], the MIC is 3.13 µg/mL in series [2]; < 0.025 µg/mL in series [3]; 1.56 µg/mL in [4]; 0.78 µg/mL in series [5]; 0.1 µg/mL in [6]; 0.78 µg/mL in series [7]. Moreover, the MIC is 0.1 µg/mL in [8]; 0.05 µg/mL in [9]; < 0.025 µg/mL in series [10]; 0.78 µg/mL in [11]; 12.5 µg/mL in series [12]; 0.78 µg/mL in [13]. For the same compound, in series [14], the MIC came out at 0.05 µg/mL. The “survival (acute toxicity)” value in series [15] and in series [15] (setting [18]) was “All of the animal survived” throughout. For the same compound, the “residual amounts (%) after 3 hours” value in [16] turned out to be 100%.

`C[C@@H](O)[C@H]1C(=O)N2C(C(=O)[O-])=C(c3cn4cnc(S(C)(=O)=O)c4s3)[C@H](C)[C@H]12.[Na+]` [Example 62, Sodium (1S,5R,6S)-6-((1R)-1-Hydroxyethyl)-2-(7-methanesulfonylimidazo[5,1-b]thiazol-2-yl)-1-methyl-1-carbapen-2-em-3-carboxylate]: the MIC in series [2] is 1.56 µg/mL; in series [3] it was < 0.025 µg/mL; in [4] it was 0.05 µg/mL; in [5], 0.05 µg/mL; in [6], 0.05 µg/mL; in [7], 0.2 µg/mL. For the same compound, the MIC in [8] was 0.05 µg/mL; in [9] it was < 0.025 µg/mL; in series [10] it was < 0.025 µg/mL; in series [11], 0.39 µg/mL; in series [12], 1.56 µg/mL; in series [13], 0.1 µg/mL. In addition, in [14], the MIC is < 0.025 µg/mL. Moreover, the “stability to mouse DHP-I (in words)” value in [17] is recorded as “instability”. The “residual amounts (%) after 3 hours” value in series [17] stood at 1.5%; in [16], 64%. Besides, the “survival (acute toxicity)” value in [15] and in series [15] (setting [18]) was “All of the animal survived” each time.

As for `C[C@@H](O)[C@H]1C(=O)N2C(C(=O)[O-])=C(c3cn4cnc(S(=O)(=O)N(C)C)c4s3)[C@H](C)[C@H]12.[Na+]` [Example 88, Sodium (1S,5R,6S)-2-[7-(N,N-dimethylsulfamoyl)imidazo[5,1-b]thiazol-2-yl]-6-((1R)-1-hydroxyethyl)-1-methyl-1-carbapen-2-em-3-carboxylate], the MIC was 1.56 µg/mL in series [2]; < 0.025 µg/mL in series [3]; 0.39 µg/mL in series [4]; 0.39 µg/mL in series [5]; 0.05 µg/mL in series [6]; 0.39 µg/mL in series [7]. In addition, the MIC was 0.1 µg/mL in [8]; < 0.025 µg/mL in [9]; < 0.025 µg/mL in [10]; 0.39 µg/mL in [11]; 3.13 µg/mL in series [12]; 0.78 µg/mL in series [13]. Also, the MIC in series [14] is < 0.025 µg/mL. The figures for the “residual amounts (%) after 3 hours” value in series [17] and in series [16] were <0.1% and 73%, respectively. Moreover, the “survival (acute toxicity)” value in [15] and in series [15] (setting [18]) was “All of the animal survived” throughout.

Turning to `CC(C)C1CC[C@H](C)CC1OC(=O)OCOC(=O)C1=C(c2cn3cnc(S(C)(=O)=O)c3s2)[C@H](C)[C@@H]2[C@@H]([C@@H](C)O)C(=O)N12` (stereo partly drawn) [Example 218, (1S,2R,5s)-(d)-Menthyloxycarbonyloxymethyl (1S,5R,6S)-6-((1R)-1-hydroxyethyl)-2-(7-methanesulfonylimidazo[5,1-b]thiazol2-yl)-1-methyl-1-carbapen-2-em-3-carboxylate], the “bio-availability (BA)” value in [1] (mice, oral, same as Test 3 but 5%HCO60 instead of 0.5% methylcellulose suspension) came out at 26%.

As for `CSc1ncn2cc(C3=C(C(=O)OCOC(=O)c4ccccc4)N4C(=O)[C@H]([C@@H](C)O)[C@H]4[C@H]3C)sc12` [Example 253, Benzoylxymethyl (1S,5R,6S)-6-((1R)-1-hydroxyethyl)-1-methyl-2-(7-methylthioimidazo-[5,1-b]thiazol-2-yl)-1-carbapen-2-em-3-carboxylate], in [1] (mouse, in vivo, po), the “bio-availability (BA)” value was determined as 37%.

Take `CSc1ncn2cc(C3=C(C(=O)OC(C)OC(=O)OCCC(C)C)N4C(=O)[C@H]([C@@H](C)O)[C@H]4[C@H]3C)sc12` (stereo partly drawn) [Example 273, 1-(3-Methyl-1-butyloxycarbonylbxy)ethyl (1S,5R,6S)-6-((1R)-1-hydroxyethyl)-1-methyl-2-(7-methylthioimidazo[5,1-b]thiazol-2-yl1)-1-carbapen-2-em-3-carboxylate]: in [1] (mouse, in vivo, po), the “bio-availability (BA)” value is 36%.

The values above are taken from patent US6677331B2, “Carbapenem derivatives” (Meiji Seika Kaisha, Ltd., priority 1998, dated 2004).
